The term IC50 denotes the point on the concentration scale where inhibition reaches its midpoint.

This note sets out measurements from ChEMBL document CHEMBL4339235, “Guitarrins A-E and Aluminumguitarrin A: 5-Azaindoles from the Northwestern Pacific Marine Sponge Guitarra fimbriata” (J Nat Prod, 2019).

The assay is described as follows: Inhibition of Cobetia marina ALP using pNPP as substrate.

Molecules are shown by their SMILES.

With `OCc1nccc2[nH]ccc12`, the IC50 result is “Not Active”.

For the molecule `O=C(O)c1cc2[nH]ccc2c(CO)n1`, the 50% inhibitory concentration (IC50) (read-out: IC50) turned out to be 2 µM.

In the case of `O=C(O)c1nc(CO)c2cc[nH]c2c1O`, the IC50 (read-out: IC50) came to 100 µM.

With `O=C(O)CCCc1nccc2[nH]ccc12`, the IC50 entry is reported as “Not Active”.

Turning to `O=C(O)c1nccc2[nH]ccc12`, the IC50 result is recorded as “Not Active”.
